According to patent publication US10076519B2 (CYTOKINETICS, INC., priority 2010, dated 2018):

Tested on: rabbit skeletal myofibrils (fast skeletal myofibrils)
Test: Activation of fast skeletal myofibrils (PUMA assay, PK/LDH-coupled ATPase at pCa25)
Format: biochemical
Description: Preparation of Fast Skeletal Myofibrils.
Rabbit skeletal myofibrils were prepared based upon the method of Herrmann et al. (Biochem. 32(28):7255-7263(1993). Myofibrils were prepared from rabbit psoas muscle purchased from Pel-Freez Biologicals (Arkansas) within 2 days of ordering, stored on ice. Minced muscle was homogenized in 10 volumes of ice-cold “standard” buffer (50 mM Tris, pH 7.4, 0.1M potassium acetate, 5 mM KCl, 2 mM DTT, 0.2 mM PMSF, 10 μM leupeptin, 5 μM pepstatin, and 0.5 mM sodium azide) containing 5 mM EDTA and 0.5% Triton X-100 using an Omni-Macro homogenizer. Myofibrils were recovered by low speed centrifugation (3000 rpm for 10 minutes) and washed 2 times in the Triton X-100 containing buffer to ensure removal of cellular membrane. Following the Triton washes, myofibrils were washed 3 times in “standard” buffer containing 2 mM magnesium acetate. A final wash in assay buffer (12 mM PIPES, pH 6.8, 60 mM KCl, 1 mM DTT) was performed and brought to 10% sucrose for flash freezing in liquid nitrogen and storage at −80° C.
Activation of Fast Skeletal Myofibrils.
Fast fiber activators were identified by measuring the enzymatic activity of muscle myofibril preparations using the proprietary PUMA™ (see, e.g., U.S. Pat. Nos. 6,410,254, 6,743,599, 7,202,051, and 7,378,254) assay system. Myofibril preparations consisted of rabbit skeletal muscle (approximately 90% fast fibers) that had been mechanically homogenized and washed with a detergent (triton X-100) to remove cellular membranes. This preparation retained all of the sarcomeric components in a native conformation and the enzymatic activity was still regulated by calcium. Compounds were tested using a myofibril suspension and a level of calcium sufficient to increase enzymatic activity of the myofibrils to 25% of their maximal rate (termed pCa25). Enzymatic activity was tracked via a pyruvate kinase and lactate dehydrogenase-coupled enzyme system. This assay regenerates myosin-produced ADP into ATP by oxidizing NADH, producing an absorbance change at 340 nm. The buffering system was 12 mM Pipes, 2 mM MgCl2, 1 mM DTT at pH 6.8 (PM12 buffer).
Using procedures similar to those described herein, utilizing reagents and intermediates commercially available (e.g., Sigma-Aldrich, St. Louis, Mo.) or readily synthesized by one of skill in the art, the compounds in Table 2 were synthesized, characterized and tested. AC1.4 values were determined according to the procedure described in Example 39, and the reported median AC1.4 values are as follows: A=<1 uM; B=1-10 uM; C=10-20 uM; D=>20 uM.

[1] = median AC1.4 class, procedure of Example 39
[2] = AC1.4 determined according to the procedure of Example 39, reported as class symbols

Row | Compound | Mean AC1.4 [1] | Mean AC1.4 [2]
1 | NC(=O)c1cnn(Cc2ccc(NC3(c4ncccc4F)CCC3)nn2)c1 | D (D=>20 uM) | –
2 | CC(=O)N1CC(c2ccc(NCC3(c4ncccc4F)CCC3)nn2)C1 | D (D=>20 uM) | –
3 | O=C(O)C1CN=C(c2ccc(NCC3(c4ncccc4F)CCC3)nn2)N1 (centres unmarked) | D (D=>20 uM) | –
4 | NC(=O)c1coc(-c2ccc(NCC3(c4ncccc4F)CCC3)nn2)n1 | D (D=>20 uM) | –
5 | NC(=O)c1cnc(-c2ccc(NCC3(c4ncccc4F)CCC3)nn2)o1 | B (B=1-10 uM) | –
6 | NC(=O)c1csc(-c2ccc(NCC3(c4ncccc4F)CCC3)nn2)n1 | D (D=>20 uM) | –
7 | NC(=O)C1CN=C(c2ccc(NCC3(c4ncccc4F)CCC3)nn2)N1 (centres unmarked) | D (D=>20 uM) | –
8 | CC(C)(CNc1ccc(-c2cccc(C#N)c2)nn1)OCc1ccccc1 | – | D (D=>20 uM)
9 | NC(=O)c1cccc(-c2ccc(NC3(c4ncccc4OC(F)F)CCC3)nn2)c1 | D (D=>20 uM) | –
10 | NC(=O)c1ccc(F)c(-c2ccc(NC3(c4ncccc4OC(F)F)CCC3)nn2)c1 | C (C=10-20 uM) | –
11 | NC(=O)c1ccc(F)c(-c2ccc(NC3(c4ncccc4Br)CCC3)nn2)c1 | A (A=<1 uM) | –
12 | NC(=O)c1ccc(C2(Nc3ccc(-c4cccc(C(N)=O)c4)nn3)CCC2)cc1 | D (D=>20 uM) | –
13 | N#Cc1ccnc(C2(Nc3ccc(-c4cc(C(N)=O)ccc4F)nn3)CCC2)c1 | D (D=>20 uM) | –
14 | NC(=O)c1ccc(F)c(-c2ccc(NC3(c4ccc(OC(F)F)cn4)CCC3)nn2)c1 | D (D=>20 uM) | –
15 | N#Cc1ccc(C2(Nc3ccc(-c4cc(C(N)=O)ccc4F)nn3)CCC2)nc1 | D (D=>20 uM) | –
16 | NC(=O)c1cccc(-c2ccc(NC3(c4cccc(OC(F)F)n4)CCC3)nn2)c1 | A (A=<1 uM) | –
17 | NC(=O)c1ccc(F)c(-c2ccc(NC3(c4cccc(OC(F)F)n4)CCC3)nn2)c1 | A (A=<1 uM) | –
18 | N#Cc1cccc(C2(Nc3ccc(-c4cc(C(N)=O)ccc4F)nn3)CCC2)n1 | B (B=1-10 uM) | –
19 | COc1cccc(C2(Nc3ccc(-c4cccc(C(N)=O)c4)nn3)CCC2)n1 | B (B=1-10 uM) | –
20 | NC(=O)c1cc(-c2ccc(NCC3(c4ncccc4F)CCC3)nn2)n[nH]1 | B (B=1-10 uM) | –
21 | NC(=O)c1cc(-c2ccc(NCC3(c4ncccc4F)CCC3)nn2)no1 | A (A=<1 uM) | –
22 | NC(=O)N1CC(c2ccc(NCC3(c4ncccc4F)CCC3)nn2)C1 | D (D=>20 uM) | –
23 | Cn1nc(-c2ccc(NCC3(c4ncccc4F)CCC3)nn2)cc1C(N)=O | B (B=1-10 uM) | –
24 | O=C1Cc2c(cccc2-c2ccc(NCC3(c4ncccc4F)CCC3)nn2)N1 | – | B (B=1-10 uM)
25 | NC(=O)c1nc(-c2ccc(NCC3(c4ncccc4F)CCC3)nn2)c[nH]1 | C (C=10-20 uM) | –
26 | Cn1cc(-c2ccc(NCC3(c4ncccc4F)CCC3)nn2)nc1C(N)=O | D (D=>20 uM) | –

Row | Compound | Mean AC1.4 [1] | Mean AC1.4 [2]
27 | COc1cc(-c2ccc(NCC3(c4ncccc4F)CCC3)nn2)ccc1C(N)=O | B (B=1-10 uM) | –
28 | COc1cc(-c2ccc(NCC3(c4ncccc4F)CCC3)nn2)ccc1C(=O)O | D (D=>20 uM) | –
29 | NC(=O)c1ccc(-c2ccc(NCC3(c4ncccc4F)CCC3)nn2)cc1O | B (B=1-10 uM) | –
30 | NC(=O)c1ccc(Cl)c(-c2ccc(NC3(c4ncccc4F)CCC3)nn2)c1 | B (B=1-10 uM) | –
31 | CC(C)(Nc1ccc(-c2cc(C(N)=O)ccc2F)nn1)c1cccc(=O)[nH]1 | D (D=>20 uM) | –
32 | N#Cc1ccc(F)c(-c2ccc(NC3(c4ncccc4F)CCC3)nn2)c1 | B (B=1-10 uM) | –
33 | NC(=O)c1ccc(F)c(-c2ccc(NC3(c4ncccc4F)CCCC3)nn2)c1 | A (A=<1 uM) | –
34 | NC(=O)c1ccc(F)c(-c2ccc(NC3(c4ncccc4O)CCC3)nn2)c1 | D (D=>20 uM) | –
35 | COc1cccnc1C1(Nc2ccc(-c3cc(C(N)=O)ccc3F)nn2)CCC1 | C (C=10-20 uM) | –
36 | O=C(O)c1ccc(F)c(-c2ccc(NC3(c4ccc(F)cc4)CCC3)nn2)c1 | B (B=1-10 uM) | –
37 | NC(=O)c1ccc(F)c(-c2ccc(NC3(c4ccc(O)cn4)CCC3)nn2)c1 | D (D=>20 uM) | –
38 | COc1ccc(C2(Nc3ccc(-c4cc(C(N)=O)ccc4F)nn3)CCC2)nc1 | D (D=>20 uM) | –
39 | COc1cccc(C2(Nc3ccc(-c4cc(C(N)=O)ccc4F)nn3)CCC2)n1 | A (A=<1 uM) | –
40 | CC1(Nc2ccc(-c3cc(C(N)=O)ccc3F)nn2)CCC1 | D (D=>20 uM) | –
41 | CC(C)(CNc1ccc(-c2ccc3[nH]c(=O)[nH]c3c2)nn1)c1ccc(F)cc1 | – | A (A=<1 uM)
42 | NC(=O)c1ncc(-c2ccc(NCC3(c4ncccc4F)CCC3)nn2)o1 | B (B=1-10 uM) | –
43 | NC(=O)c1cc(-c2ccc(NCC3(c4ncccc4F)CCC3)nn2)on1 | B (B=1-10 uM) | –
44 | O=C(O)c1cc(-c2ccc(NCC3(c4ncccc4F)CCC3)nn2)on1 | D (D=>20 uM) | –
45 | NC(=O)c1noc(-c2ccc(NCC3(c4ncccc4F)CCC3)nn2)n1 | B (B=1-10 uM) | –
46 | COc1ccc(-c2ccc(NCC3(c4ncccc4F)CCC3)nn2)cc1C(N)=O | B (B=1-10 uM) | –
47 | NC(=O)c1cc(-c2ccc(NCC3(c4ncccc4F)CCC3)nn2)ccc1O | A (A=<1 uM) | –
48 | Cn1nc(C(N)=O)cc1-c1ccc(NCC2(c3ncccc3F)CCC2)nn1 | B (B=1-10 uM) | –
49 | COc1ccc(-c2ccc(NCC3(c4ncccc4F)CCC3)nn2)cc1C(=O)O | D (D=>20 uM) | –
50 | CC(=O)Nc1cccc(-c2ccc(NCC3(c4ncccc4F)CCC3)nn2)c1 | – | B (B=1-10 uM)
51 | CC(=O)Nc1nc(-c2ccc(NCC3(c4ncccc4F)CCC3)nn2)c[nH]1 | – | D (D=>20 uM)
52 | NC(=O)[C@H]1C[C@@H]1c1ccc(NCC2(c3ncccc3F)CCC2)nn1 | D (D=>20 uM) | –

Row | Compound | Mean AC1.4 [1] | Mean AC1.4 [2]
53 | OCc1ccccc1-c1ccc(NCC2(c3ncccc3F)CCC2)nn1 | – | B (B=1-10 uM)
54 | NC(=O)[C@@H]1C[C@@H]1c1ccc(NCC2(c3ncccc3F)CCC2)nn1 | D (D=>20 uM) | –
55 | CS(=O)(=O)Nc1cccc(-c2ccc(NC3(c4ncccc4OC(F)F)CCC3)nn2)c1 | C (C=10-20 uM) | –
56 | CS(=O)(=O)Nc1cccc(-c2ccc(NC3(c4ncccc4F)CCC3)nn2)c1 | B (B=1-10 uM) | –
57 | CS(=O)(=O)Nc1cccc(-c2ccc(NC3(c4cccc(OC(F)F)n4)CCC3)nn2)c1 | A (A=<1 uM) | –
58 | COc1cccc(C2(Nc3ccc(-c4cccc(NS(C)(=O)=O)c4)nn3)CCC2)n1 | B (B=1-10 uM) | –
59 | CNC(=O)c1cc(-c2ccc(NC3(c4ccc(F)cc4)CCC3)nn2)ccn1 | B (B=1-10 uM) | –
60 | CC(C)(O)CNC(=O)c1ccc(F)c(-c2ccc(NC3(c4ccc(F)cc4)CCC3)nn2)c1 | B (B=1-10 uM) | –
61 | Fc1cccnc1C1(CNc2ccc(-c3ccccc3OC(F)(F)F)nn2)CCC1 | – | A (A=<1 uM)
62 | NC(=O)NC1CC(c2ccc(NCC3(c4ncccc4F)CCC3)nn2)C1 (centres unmarked) | C (C=10-20 uM) | –
63 | NC(=O)N[C@H]1C[C@@H](c2ccc(NCC3(c4ncccc4F)CCC3)nn2)C1 | B (B=1-10 uM) | –
64 | NC(=O)Nc1ccc(-c2ccc(NC3(c4ncccc4F)CCC3)nn2)c(F)c1 | B (B=1-10 uM) | –
65 | NC(=O)Nc1ccc(-c2ccc(NC3(c4ncccc4F)CCC3)nn2)cc1 | B (B=1-10 uM) | –
66 | NC(=O)NC1CC=C(c2ccc(NCC3(c4ncccc4F)CCC3)nn2)CC1 (centres unmarked) | B (B=1-10 uM) | –
67 | NC(=O)Nc1n[nH]c2ccc(-c3ccc(NCC4(c5ncccc5F)CCC4)nn3)cc12 | A (A=<1 uM) | –
68 | NS(=O)(=O)Nc1ccc(-c2ccc(NC3(c4ncccc4F)CCC3)nn2)c(F)c1 | B (B=1-10 uM) | –
69 | NS(=O)(=O)Nc1ccc(F)c(-c2ccc(NC3(c4ncccc4F)CCC3)nn2)c1 | B (B=1-10 uM) | –
70 | CCOC(=O)C(C(=O)OCC)c1ccc(NCC2(c3ncccc3F)CCC2)nn1 | D (D=>20 uM) | –
71 | CCOC(=O)c1cc(-c2ccc(NCC3(c4ncccc4F)CCC3)nn2)on1 | D (D=>20 uM) | –
72 | CCOC(=O)/C=C/c1ccc(NC2(c3ncccc3F)CCC2)nn1 | D (D=>20 uM) | –
73 | CCOC(=O)/C=C/c1ccc(NCC2(c3ncccc3F)CCC2)nn1 | D (D=>20 uM) | –
74 | COC(=O)c1coc(-c2ccc(NCC3(c4ncccc4F)CCC3)nn2)n1 | D (D=>20 uM) | –
75 | COC(=O)C1CN=C(c2ccc(NCC3(c4ncccc4F)CCC3)nn2)N1 (centres unmarked) | D (D=>20 uM) | –
76 | COC(=O)N1CC(c2ccc(NCC3(c4ncccc4F)CCC3)nn2)C1 | D (D=>20 uM) | –
77 | O=C(OCc1ccccc1)N1CC(c2ccc(NCC3(c4ncccc4F)CCC3)nn2)C1 | D (D=>20 uM) | –
